Reference: patent US20260034103A1, “COMPOSITIONS AND METHODS FOR IMPROVING MEMORY AND COGNITION” (priority 2022, published 2026)

How the values were obtained:
Wistar rats = assay: Novel object recognition test, subchronic PCP-induced cognitive impairment; assay type: in vivo, rat; conditions: PCP 5 mg/kg twice daily for 7 days IP
Procedure: The total exploration time of two identical objects in the acquisition trial was measured manually and indicated as the mean±SEM (n=10). No statistical difference was found in the total exploration time among the different groups by one-way ANOVA (P=0.340).
(§1) NDI was calculated using the following equation: novel object interaction time/total interaction time×100(%). Data are represented as the mean±SEM (n=10). Significant difference from control group was indicated by ***P<0.001 (Student's t-test). Significant differences from PCP-treated group were indicated by ##P<0.01, #P<0.05 (Dunnett test). Significant difference from PCP-treated group were indicated by ††P<0.01 (Student's t-test).
Exploration time of each object in retention trial was measured manually and presented as the mean±SEM (n=10). Significant differences from familiar object interaction were indicated by ***P<0.001, **P<0.01 (paired t-test).
A novel object recognition test was conducted to investigate the effect of SP-624 on subchronic PCP-induced cognitive impairment in Wistar rats. Clozapine was used as a positive control.

Long-Evans rats = assay: Novel object recognition test, scopolamine-induced cognitive impairment; assay type: in vivo, rat; conditions: scopolamine 0.1 mg/kg SC
Procedure: Total exploration time of two identical objects in the acquisition trial was measured manually and indicated as the mean±SEM (n=8). No statistical difference was found in the total exploration time among the different groups by one-way ANOVA (P=0.115).
as §1, with “(n=8).” for “(n=10).”, “scopolamine-treated vehicle” for “PCP-treated”, “##P<0.01” for “##P<0.01, #P<0.05”, “†††P<0.001” for “††P<0.01”
Exploration time of each object in retention trial was measured manually and presented as the mean±SEM (n=8). Significant differences from familiar object interaction were indicated by **P<0.01, *P<0.05 (paired t-test).
A novel object recognition test (which evaluates visual learning and memory) was conducted to investigate the effect of compound 1 on scopolamine-induced cognitive impairment in Long-Evans rats. Donepezil was used as a positive control. Scopolamine at 0.1 mg/kg SC reduced the novelty discrimination index (NDI) a measure of cognitive function (FIGS. 4-6).

| Compound | NDI compared with sub-chronic vehicle treatment (Wistar rats) | novelty discrimination index (NDI) (Long-Evans rats) |
| --- | --- | --- |
| c1ccc(C2(N3CCCCC3)CCCCC2)cc1 [PCP, reference compound] | significantly decreased | – |
| CN1[C@@H]2C[C@@H](OC(=O)[C@H](CO)c3ccccc3)C[C@H]1[C@@H]1O[C@@H]12 [Scopolamine, reference compound] | – | reduced |
